Legend:
Settings in all cases: incubation time: 72 h
CAL-148 = assay: drug sensitivity score (DSS), CellTiter-Glo (DSS (AUC-based score)); higher = stronger drug effect (viability inhibition or cytotoxicity); extreme values may be limits of the assay
How it was run: (§1)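 Using 20 µl of cell suspension per well, breast cancer cell lines were seeded into 384-well plates pre-loaded with compound at 5 concentrations in 10-fold steps across a compound-specific 10,000-fold range. Incubation lasted 72 h, after which CellTox Green fluorescence at 485/520 nm and then CellTiter-Glo luminescence, following 10 min at room temperature, were recorded. Each plate was normalised to 0.1 % DMSO and a positive kill control before the drug sensitivity score was derived from the area under the fitted dose-response curve.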

MFM-223 = assay: as above
How it was run: as §1

CAL-120 [1] = assay: as above
How it was run: as §1

MDA-MB-468 = assay: as above
How it was run: as §1

BT-474 = assay: as above
How it was run: as §1

CAL-85-1 [2] = assay: as above
How it was run: as §1

MDA-MB-231 = assay: as above
How it was run: as §1

Hs578T [3] = assay: as above
How it was run: as §1

HCC1143 = assay: as above
How it was run: as §1

BT-549 [4] = assay: as above
How it was run: as §1

MCF-10A = assay: as above
How it was run: as §1

HDQ-P1 [5] = assay: as above
How it was run: as §1

HCC1937 = assay: as above
How it was run: as §1

DU-4475 = assay: as above
How it was run: as §1

HCC1599 = assay: as above
How it was run: as §1

MDA-MB-453 = assay: as above
How it was run: as §1

SK-BR-3 = assay: as above
How it was run: as §1

MDA-MB-436 [6] = assay: as above
How it was run: as §1

CAL-51 = assay: as above
How it was run: as §1

CAL-120 [7] = assay: normalised viability (% of control), CellTiter-Blue; higher = more viable cells (about 100 = DMSO control)
How it was run: (§2)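 Plates were quality-checked by Z'-factor and normalised to vehicle (100) and a positive kill control (0). The underlying assay incubated breast cancer cell lines for 72 h on 384-well plates with compound, then added 2.5 µl CellTiter-Blue for 2 h at 37 °C and read at 560/590 nm. The value is normalised viability at a single listed concentration of the series.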

CAL-85-1 [8] = assay: as above
How it was run: as §2

Hs578T [9] = assay: as above
How it was run: as §2

BT-549 [10] = assay: as above
How it was run: as §2

HDQ-P1 [11] = assay: as above
How it was run: as §2

MDA-MB-436 [12] = assay: as above
How it was run: as §2

CC(O)(CS(=O)(=O)c1ccc(F)cc1)C(=O)Nc1ccc(C#N)c(C(F)(F)F)c1 (stereo not given) [Bicalutamide]
Settings | drug sensitivity score
BT-474 | 0
BT-549 [4] | 0
CAL-51 | 0
CAL-85-1 [2] | 0
CAL-120 [1] | 0
CAL-148 | 0
DU-4475 | 0
HCC1143 | 0
HCC1599 | 0
HCC1937 | 0
HDQ-P1 [5] | 0
Hs578T [3] | 0
MCF-10A | 0
MDA-MB-231 | 0
MDA-MB-436 [6] | 0
MDA-MB-453 | 0.186
MDA-MB-468 | 0
MFM-223 | 0
SK-BR-3 | 0

normalised viability [%]
Settings | BT-549 [10] | CAL-85-1 [8] | CAL-120 [7] | HDQ-P1 [11] | Hs578T [9] | MDA-MB-436 [12]
3 nM | – | 93.7 | – | 86.9 | – | –
10 nM | 87 | – | 96 | – | 108 | 90
30 nM | – | 97.3 | – | 110 | – | –
100 nM | – | 104 | – | 118 | – | –
1000 nM | 94.3 | – | 107 | – | 112 | 96.2
10000 nM | 87.2 | – | 119 | – | 113 | 96.7

Nc1ccn([C@@H]2O[C@H](CO)[C@@H](O)C2(F)F)c(=O)n1 [Gemcitabine]
Settings | drug sensitivity score
BT-474 | 3.22
BT-549 [4] | 14.7
CAL-51 | 16.7
CAL-85-1 [2] | 12.4
CAL-120 [1] | 3.04
CAL-148 | 10.6
DU-4475 | 4.13
HCC1143 | 14.5
HCC1599 | 12.8
HCC1937 | 0
HDQ-P1 [5] | 1.57
Hs578T [3] | 4.8
MCF-10A | 5.69
MDA-MB-231 | 0
MDA-MB-436 [6] | 16.8
MDA-MB-453 | 4.36
MDA-MB-468 | 19.7
MFM-223 | 0
SK-BR-3 | 13.6

normalised viability [%]
Settings | BT-549 [10] | CAL-85-1 [8] | CAL-120 [7] | HDQ-P1 [11] | Hs578T [9] | MDA-MB-436 [12]
0.3 nM | – | 96.6 | – | 110 | – | –
1 nM | 92.8 | – | 107 | – | 106 | 98.1
3 nM | – | 85.1 | – | 108 | – | –
10 nM | – | 85.3 | – | 100 | – | –
100 nM | 69.9 | – | 41.6 | – | 62.6 | 53.1
1000 nM | 61 | – | 43 | – | 71.5 | 52.5

CC(C)C[C@H](NC(=O)[C@@H](COC(C)(C)C)NC(=O)[C@H](Cc1ccc(O)cc1)NC(=O)[C@H](CO)NC(=O)[C@H](Cc1c[nH]c2ccccc12)NC(=O)[C@H](Cc1cnc[nH]1)NC(=O)[C@@H]1CCC(=O)N1)C(=O)N[C@@H](CCCNC(=N)N)C(=O)N1CCC[C@H]1C(=O)NNC(N)=O [Goserelin]
Settings | drug sensitivity score
BT-474 | 0
BT-549 [4] | 0
CAL-51 | 0
CAL-85-1 [2] | 0
CAL-120 [1] | 0
CAL-148 | 0
DU-4475 | 0
HCC1143 | 0
HCC1599 | 0
HCC1937 | 0
HDQ-P1 [5] | 0
Hs578T [3] | 0
MCF-10A | 0
MDA-MB-231 | 0
MDA-MB-436 [6] | 0
MDA-MB-453 | 0
MDA-MB-468 | 0
MFM-223 | 0
SK-BR-3 | 0

normalised viability [%]
Settings | BT-549 [10] | CAL-85-1 [8] | CAL-120 [7] | HDQ-P1 [11] | Hs578T [9] | MDA-MB-436 [12]
3 nM | – | 102 | – | 104 | – | –
10 nM | 85.9 | – | 96.4 | – | 105 | 95.6
30 nM | – | 93.9 | – | 109 | – | –
100 nM | – | 102 | – | 103 | – | –
1000 nM | 88 | – | 93.1 | – | 98 | 97.3
10000 nM | 103 | – | 94.4 | – | 104 | 94

COc1ccc(S(=O)(=O)Nc2cccnc2Nc2ccc(O)cc2)cc1 [ABT-751]
Settings | drug sensitivity score
BT-474 | 6.74
BT-549 [4] | 9.41
CAL-51 | 2.26
CAL-85-1 [2] | 12.2
CAL-120 [1] | 7.83
CAL-148 | 3.29
DU-4475 | 5.29
HCC1143 | 6.19
HCC1599 | 11.2
HCC1937 | 2.93
HDQ-P1 [5] | 5.44
Hs578T [3] | 10.9
MCF-10A | 2.74
MDA-MB-231 | 7.19
MDA-MB-436 [6] | 11.4
MDA-MB-453 | 10.5
MDA-MB-468 | 12
MFM-223 | 7.28
SK-BR-3 | 13.1

normalised viability [%]
Settings | BT-549 [10] | CAL-85-1 [8] | CAL-120 [7] | HDQ-P1 [11] | Hs578T [9] | MDA-MB-436 [12]
3 nM | – | 94.1 | – | 91.2 | – | –
10 nM | 94.1 | – | 81.7 | – | 98.9 | 86
30 nM | – | 86.2 | – | 102 | – | –
100 nM | – | 88.9 | – | 107 | – | –
1000 nM | 77.2 | – | 26.8 | – | 16.6 | 48.3
10000 nM | 13.6 | – | 21.6 | – | 14.4 | 21.4

CCNC(=O)CCC/C=C\C[C@@H]1[C@@H](/C=C/[C@@H](O)CCc2ccccc2)[C@H](O)C[C@@H]1O [Bimatoprost]
Settings | drug sensitivity score
BT-474 | 0
BT-549 [4] | 0
CAL-51 | 0
CAL-85-1 [2] | 0
CAL-120 [1] | 0
CAL-148 | 0
DU-4475 | 0
HCC1143 | 0
HCC1599 | 0
HCC1937 | 0
HDQ-P1 [5] | 0
Hs578T [3] | 0
MCF-10A | 0
MDA-MB-231 | 0
MDA-MB-436 [6] | 0
MDA-MB-453 | 0
MDA-MB-468 | 0
MFM-223 | 0
SK-BR-3 | 0

normalised viability [%]
Settings | BT-549 [10] | CAL-85-1 [8] | CAL-120 [7] | HDQ-P1 [11] | Hs578T [9] | MDA-MB-436 [12]
1.65 nM | – | 97.1 | – | 111 | – | –
5.5 nM | 102 | – | 95.3 | – | 110 | 111
16.5 nM | – | 92.5 | – | 103 | – | –
55 nM | – | 101 | – | 102 | – | –
550 nM | 109 | – | 92.4 | – | 116 | 111
5500 nM | 85.5 | – | 94 | – | 98.1 | 103
